Consider 26 molecules from patent US20240083900A1, “PYRAZOLO[1,5-A]PYRAZINE DERIVATIVES AS BTK INHIBITORS” (BIOGEN MA INC., priority 2020, published 2024).

Read-outs that look alike come from different tables or passages of the source. Some results are limits rather than exact numbers.

For one assay, the target named is BTK (Homo sapiens (Human), UniProt Q06187). Kind of assay: In Vitro BTK Kinase Assay: Btk-PolyGAT-LS Assay. The following applies: BTK enzyme 0.25 nM, ATP 10 μM, polyGAT 100 nM, 30 minutes incubation, TRF readout; read-out: IC50. In kind it is biochemical. Summed up:
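Human BTK activity was measured with final 10 μM ATP and 100 nM polyGAT substrate in pH 7.5 Tris buffer with 10 mM MgCl2, DTT, Triton X-100 and casein.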

In assay [1] the test system is CD69 expression on CD19+ B cells in human whole blood stimulated with anti-human IgD. Kind of assay: In Vitro whole blood CD69 Assay. In kind it is cell-based.
Where [2] appears, read: Homo sapiens, B-cell, human heparinized whole blood, anti-human IgD stimulation overnight, percentage of CD19+ B cells expressing CD69, flow cytometry, read-out: IC50.
Where [3] appears, read: human heparinized whole blood, anti-human IgD stimulation overnight, percentage of CD19+ B cells expressing CD69, flow cytometry, read-out: IC50.

Sequence of BTK (Q06187 whole entry): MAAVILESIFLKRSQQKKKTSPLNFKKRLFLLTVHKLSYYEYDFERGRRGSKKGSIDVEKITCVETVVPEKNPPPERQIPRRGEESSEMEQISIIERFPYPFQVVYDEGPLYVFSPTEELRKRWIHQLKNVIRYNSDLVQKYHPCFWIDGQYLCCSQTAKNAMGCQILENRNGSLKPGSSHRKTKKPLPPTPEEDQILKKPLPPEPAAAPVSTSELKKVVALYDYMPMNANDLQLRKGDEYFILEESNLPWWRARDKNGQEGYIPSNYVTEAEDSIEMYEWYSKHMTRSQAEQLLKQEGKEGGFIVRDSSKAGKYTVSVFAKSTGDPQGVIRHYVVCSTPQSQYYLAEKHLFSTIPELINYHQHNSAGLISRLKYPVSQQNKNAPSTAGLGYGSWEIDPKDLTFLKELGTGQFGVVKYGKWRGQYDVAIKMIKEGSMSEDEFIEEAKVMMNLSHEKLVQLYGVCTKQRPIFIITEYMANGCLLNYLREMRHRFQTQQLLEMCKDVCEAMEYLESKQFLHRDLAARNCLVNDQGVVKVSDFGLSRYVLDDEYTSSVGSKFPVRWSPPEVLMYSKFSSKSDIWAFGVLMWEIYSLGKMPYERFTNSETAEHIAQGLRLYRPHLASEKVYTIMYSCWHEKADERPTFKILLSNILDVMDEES

Usually IC50 stands for the concentration that gives 50% inhibition. As for `CC#CC(=O)N[C@H]1CC[C@@H](Oc2nc(-c3cnn(C)c3)cn3ncc(F)c23)C1` [Example 95, N-((1S,3R)-3-((3-fluoro-6-(1-methyl-1H-pyrazol-4-yl)pyrazolo[1,5-a]pyrazin-4-yl)oxy)cyclopentyl) but-2-ynamide], the IC50 is below 1 nM on BTK and below 1000 nM in assay [1] (setting [2]).
Take `C=CC(=O)NC12CCC(Oc3nc(-c4cnn(C)c4)cn4nccc34)(C1)C2` [Example 98, N-(4-((6-(1-methyl-1H-pyrazol-4-yl)pyrazolo[1,5-a]pyrazin-4-yl)oxy)bicyclo[2.1.1]hexan-1-yl)acrylamide]: the figures for the IC50 (on BTK; in assay [1] (setting [2])) were below 1 nM and 1000 to 10000 nM, respectively.
For the molecule `CC#CC(=O)N(C)C12COCC(Oc3nc(-c4cnn(C)c4)cn4nccc34)(C1)C2` [Example 100, N-methyl-N-(5-((6-(1-methyl-1H-pyrazol-4-yl)pyrazolo[1,5-a]pyrazin-4-yl)oxy)-3-oxabicyclo[3.1.1]heptan-1-yl)but-2-ynamide], the IC50 on BTK is below 1 nM; in assay [1] (setting [2]), below 1000 nM.
The corresponding values for `C=CC(=O)N(C1CC1)[C@H]1C[C@@H](Oc2nc(-c3cnn(C)c3)cn3nccc23)C1` [Example 101, N-cyclopropyl-N-((cis)-3-((6-(1-methyl-1H-pyrazol-4-yl)pyrazolo[1,5-a]pyrazin-4-yl)oxy)cyclobutyl)acrylamide] are below 1 nM and 1000 to 10000 nM.
In the case of `C=CC(=O)N(C)[C@H]1C[C@](Oc2nc(-c3cnn(C)c3)cn3nccc23)(C2CC2)C1` [Example 103, N-((1s,3s)-3-cyclopropyl-3-((6-(1-methyl-1H-pyrazol-4-yl)pyrazolo[1,5-a]pyrazin-4-yl)oxy)cyclobutyl)-N-methylacrylamide], the values for the IC50 (on BTK; in assay [1] (setting [3])) were 1 to 10 nM and 1000 to 10000 nM, respectively.
The corresponding values for `C=CC(=O)N(C)[C@H]1C[C@@](Oc2nc(-c3cnn(C)c3)cn3nccc23)(C2CC2)C1` [Example 104, N—((1r,3r)-3-cyclopropyl-3-((6-(1-methyl-1H-pyrazol-4-yl)pyrazolo[1,5-a]pyrazin-4-yl)oxy)cyclobutyl)-N-methylacrylamide] are 10 to 1000 nM and 1000 to 10000 nM.
As for `C=CC(=O)N1CC2(Oc3nc(-c4cnn(C)c4)cn4nccc34)CC1(C)C2` [Example 124, 1-(1-methyl-4-((6-(1-methyl-1H-pyrazol-4-yl)pyrazolo[1,5-a]pyrazin-4-yl)oxy)-2-azabicyclo[2.1.1]hexan-2-yl)prop-2-en-1-one], the IC50 lay within 1 to 10 nM on BTK and 1000 to 10000 nM in assay [1] (Homo sapiens, B-cell).
For `C=CC(=O)NC12CCC(Oc3nc(-c4cnn(C)c4)cn4nccc34)(CC1)C2` [Example 125, N-(4-((6-(1-methyl-1H-pyrazol-4-yl)pyrazolo[1,5-a]pyrazin-4-yl)oxy)bicyclo[2.2.1]heptan-1-yl)acrylamide], the IC50 on BTK lay within 1 to 10 nM; in assay [1] (setting [2]) it was 1000 to 10000 nM.
The corresponding values for `C=CC(=O)N1CC2CC(C1)C2COc1nc(-c2cnn(C)c2)cn2nccc12` (stereo not shown) [Example 126, 1-(6-(((6-(1-methyl-1H-pyrazol-4-yl)pyrazolo[1,5-a]pyrazin-4-yl)oxy)methyl)-3-azabicyclo[3.1.1]heptan-3-yl)prop-2-en-1-one] are below 1 nM and below 1000 nM.
Regarding `C=CC(=O)N1C[C@H]2C[C@@H](C1)[C@@H]2COc1nc(-c2cnn(C)c2)cn2nccc12` [Example 127, 1-((1R,5S,6r)-6-(((6-(1-methyl-1H-pyrazol-4-yl)pyrazolo[1,5-a]pyrazin-4-yl)oxy)methyl)-3-azabicyclo[3.1.1]heptan-3-yl)prop-2-en-1-one], the figures for the concentration for half-maximal inhibition (IC50) (on BTK; in assay [1] (setting [3])) were below 1 nM and 1000 to 10000 nM, respectively.
In the case of `C=CC(=O)N1C[C@H]2C[C@@H](C1)[C@H]2COc1nc(-c2cnn(C)c2)cn2nccc12` [Example 128, 1-((1R,5S,6s)-6-(((6-(1-methyl-1H-pyrazol-4-yl)pyrazolo[1,5-a]pyrazin-4-yl)oxy)methyl)-3-azabicyclo[3.1.1]heptan-3-yl)prop-2-en-1-one], the IC50 at BTK is below 1 nM; in assay [1] (setting [3]) it was below 1000 nM.
For the molecule `C=CC(=O)N(C)c1ccc(F)c(Oc2nc(-c3cnn(C)c3)cn3nccc23)c1` [Example 130, N-(4-fluoro-3-((6-(1-methyl-1H-pyrazol-4-yl)pyrazolo[1,5-a]pyrazin-4-yl)oxy)phenyl)-N-methylacrylamide], the figures for the IC50 (on BTK; in assay [1] (setting [2])) were 1 to 10 nM and 1000 to 10000 nM, respectively.
Regarding `C=CC(=O)N(CC(F)F)[C@H]1CC[C@@H](Oc2nc(-c3cnn(C)c3)cn3nccc23)C1` [Example 146, N-(2,2-difluoroethyl)-N-((1S,3R)-3-((6-(1-methyl-1H-pyrazol-4-yl)pyrazolo[1,5-a]pyrazin-4-yl)oxy)cyclopentyl)acrylamide], the IC50 on BTK was below 1 nM; in assay [1] (setting [2]), below 1000 nM.
For `CC#CC(=O)N[C@H]1CC[C@@H](Oc2cc(-c3cnn(C)c3)cn3nccc23)C1` [Example 164, N-[(1S,3R)-3-[6-(1-methylpyrazol-4-yl)pyrazolo[1,5-a]pyridin-4-yl]oxycyclopentyl]but-2-ynamide] the same measures were 1 to 10 nM and 1000 to 10000 nM.
Regarding `C=CC(=O)N[C@H]1C[C@@](C)(Oc2nc(-c3cnn(C)c3)cn3ncc(C4CC4)c23)C1` [Example 166, N-((cis)-3-((3-cyclopropyl-6-(1-methyl-1H-pyrazol-4-yl)pyrazolo[1,5-a]pyrazin-4-yl)oxy)-3-methylcyclobutyl)acrylamide], the IC50 at BTK was below 1 nM; in assay [1] (setting [2]), below 1000 nM.
For `C=CC(=O)N1CC[C@@H]2[C@@H](Oc3nc(-c4cnn(C)c4)cn4nccc34)C(C)(C)[C@@H]21` [Example 169, 1-((1R,5S,6R)-7,7-dimethyl-6-((6-(1-methyl-1H-pyrazol-4-yl)pyrazolo[1,5-a]pyrazin-4-yl)oxy)-2-azabicyclo[3.2.0]heptan-2-yl)prop-2-en-1-one] the same measures were 1 to 10 nM and 1000 to 10000 nM.
With `C=CC(=O)N1CC[C@@H]2[C@H]1C(C)(C)[C@H]2Oc1nc(-c2cnn(C)c2)cn2nccc12` [Example 170, 1-((1S,5R,6S)-7,7-dimethyl-6-((6-(1-methyl-1H-pyrazol-4-yl)pyrazolo[1,5-a]pyrazin-4-yl)oxy)-2-azabicyclo[3.2.0]heptan-2-yl)prop-2-en-1-one], the IC50 at BTK was in the range of 10 to 1000 nM; in assay [1] (setting [2]) it was 1000 to 10000 nM.
For `C=CC(=O)N1CC[C@H]2[C@@H](Oc3nc(-c4cnn(C)c4)cn4nccc34)C(C)(C)[C@H]21` [Example 171, 1-((1S,5R,6R)-7,7-dimethyl-6-((6-(1-methyl-1H-pyrazol-4-yl)pyrazolo[1,5-a]pyrazin-4-yl)oxy)-2-azabicyclo[3.2.0]heptan-2-yl)prop-2-en-1-one] the same measures were 10 to 1000 nM and 1000 to 10000 nM.
For the molecule `C=CC(=O)N1CC[C@@H]2[C@H](Oc3nc(-c4cnn(C)c4)cn4nccc34)C(C)(C)[C@@H]21` [Example 172, 1-((1R,5S,6S)-7,7-dimethyl-6-((6-(1-methyl-1H-pyrazol-4-yl)pyrazolo[1,5-a]pyrazin-4-yl)oxy)-2-azabicyclo[3.2.0]heptan-2-yl)prop-2-en-1-one], the IC50 was below 1 nM at BTK and 1000 to 10000 nM in assay [1] (setting [2]).
As to `C=CC(=O)N(C)[C@@H]1CC[C@H](Oc2nc(-c3cnn(C)c3)cn3ncc(-c4ccccc4)c23)C1` [Example 173, N-methyl-N-((1R,3S)-3-(6-(1-methylpyrazol-4-yl)-3-phenyl-pyrazolo[1,5-a]pyrazin-4-yl)oxycyclopentyl)prop-2-enamide], the IC50 at BTK lay within 1 to 10 nM; in assay [1] (setting [2]) it was 1000 to 10000 nM.
With `C=CC(=O)N1C[C@H]2C[C@H](Oc3nc(-c4cnn(C)c4)cn4nccc34)C[C@H]2C1` [Example 174, 1-((3aR,5s,6aS)-5-((6-(1-methyl-1H-pyrazol-4-yl)pyrazolo[1,5-a]pyrazin-4-yl)oxy)hexahydrocyclopenta[c]pyrrol-2(1H)-yl)prop-2-en-1-one], the IC50 at BTK is below 1 nM; in assay [1] (setting [2]), below 1000 nM.
The corresponding values for `CC#CC(=O)N(C)[C@H]1CCC[C@@H](Oc2nc(-c3cnn(C)c3)cn3nccc23)C1` [Example 177, N-methyl-N-((1S,3R)-3-((6-(1-methyl-1H-pyrazol-4-yl)pyrazolo[1,5-a]pyrazin-4-yl)oxy)cyclohexyl)but-2-ynamide] are below 1 nM and below 1000 nM.
The corresponding values for `CC#CC(=O)N(C)[C@@H]1CCC[C@H](Oc2nc(-c3cnn(C)c3)cn3nccc23)C1` [Example 178, N-methyl-N-((1R,3S)-3-((6-(1-methyl-1H-pyrazol-4-yl)pyrazolo[1,5-a]pyrazin-4-yl)oxy)cyclohexyl)but-2-ynamide] are 10 to 1000 nM and 1000 to 10000 nM.
For `CC#CC(=O)N[C@H]1CCC[C@@H](Oc2nc(-c3cnn(C)c3)cn3nccc23)C1` [Example 179, N-((1S,3R)-3-((6-(1-methyl-1H-pyrazol-4-yl)pyrazolo[1,5-a]pyrazin-4-yl)oxy)cyclohexyl)but-2-ynamide] the same measures were below 1 nM and below 1000 nM.
For the molecule `C=CC(=O)N(C)CCOc1nc(-c2cnn(C)c2)cn2nccc12` [Example 183, N-methyl-N-(3-((6-(1-methyl-1H-pyrazol-4-yl)pyrazolo[1,5-a]pyrazin-4-yl)oxy)ethyl)acrylamide], the IC50 on BTK lay in the range of 1 to 10 nM; in assay [1] (setting [2]), 1000 to 10000 nM.
As to `C=CC(=O)N[C@H]1C[C@@](C)(Oc2nc(-c3cnc(C)s3)cn3nccc23)C1` [Example 186, N-((1s,3s)-3-methyl-3-((6-(2-methylthiazol-5-yl)pyrazolo[1,5-a]pyrazin-4-yl)oxy)cyclobutyl)acrylamide], the values for the IC50 (on BTK; in assay [1] (setting [2])) were below 1 nM and below 1000 nM, respectively.
